Columns and labels:
[1] = tested on: K1 strain, a drug resistant strain of Plasmodium falciparum; test: In vitro antimalarial assay (p-LDH, Malstat), K1 strain; assay type: cell-based; conditions: P. falciparum K1 (drug resistant), 72 h culture, p-LDH readout, read-out: Antimalarial activity (IC50 value), Strain K1
Procedure, shortened: (§1)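 P. falciparum FCR3 and K1 cultured in human erythrocytes (RPMI 1640, 10% human plasma; 2% hematocrit, 0.5 or 1% parasitaemia) with compound at 12.5 to 0.0001 μM final for 72 h at 37° C (3% O2-4% CO2-93% N2). Growth read as p-LDH activity (Malstat/NBT-PES, A655 nm) after freeze-thaw; IC50 from concentration-response curve.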

[2] = tested on: FCR3 strain, a drug sensitive strain of Plasmodium falciparum; test: In vitro antimalarial assay (p-LDH, Malstat), FCR3 strain; assay type: cell-based; conditions: P. falciparum FCR3 (drug sensitive), 72 h culture, p-LDH readout, read-out: Antimalarial activity (IC50 value), Strain FCR3
Procedure, shortened: as §1

| Compound | IC50 [1] | IC50 [2] |
| --- | --- | --- |
| c1cn2ccc(Nc3cc(N4CCOCC4)nc(Nc4ccc(OC5CCOCC5)nc4)n3)cc2n1 [Example 82, N4-(imidazo[1,2-a]pyridin-7-yl)-6-morpholino-N2-(6-((tetrahydro-2H-pyran-4-yl)oxy)pyridin-3-yl)pyrimidine-2,4-diamine] | 100 to 1000 nM | 100 to 1000 nM |
| Cc1ccc(Nc2nc(Nc3ccn4ccnc4c3)cc(N(C)C)n2)cn1 [Example 83, N4-(imidazo[1,2-a]pyridin-7-yl)-N6,N6-dimethyl-N2-(6-methylpyridin-3-yl)pyrimidine-2,4,6-triamine] | 1000 to 10000 nM | 100 to 1000 nM |
| Cc1cc(C)nc(Nc2nc(Nc3ccn4ccnc4c3)cc(N(C)C)n2)c1 [Example 84, N2-(4,6-dimethylpyridin-2-yl)-N4-(imidazo[1,2-a]pyridin-7-yl)-N6,N6-dimethylpyrimidine-2,4,6-triamine] | < 100 nM | < 100 nM |
| Cc1ccc(Nc2nc(N)cc(Nc3ccn4ccnc4c3)n2)cn1 [Example 85, N4-(imidazo[1,2-a]pyridin-7-yl)-N2-(6-methylpyridin-3-yl) pyrimidine-2,4,6-triamine] | 1000 to 10000 nM | 1000 to 10000 nM |
| COc1cc(Nc2ccn3ccnc3c2)nc(Nc2cc(C)cc(C)n2)n1 [Example 86, N2-(4,6-dimethylpyridin-2-yl)-N4-(imidazo[1,2-a]pyridin-7-yl)-6-methoxypyrimidine-2,4-diamine] | 100 to 1000 nM | 100 to 1000 nM |
| Cc1ccc(Nc2nc(Nc3ccn4ccnc4c3)cc(N3CCOCC3)n2)nc1C [Example 87, N2-(5,6-dimethylpyridin-2-yl)-N4-(imidazo[1,2-a]pyridin-7-yl)-6-morpholinopyrimidine-2,4-diamine] | < 100 nM | < 100 nM |
| Cc1ccc(Nc2nc(Nc3ccn4ccnc4c3)cc(N3CCCCC3)n2)nc1C [Example 88, N2-(5,6-dimethylpyridin-2-yl)-N4-(imidazo[1,2-a]pyridin-7-yl)-6-(piperidin-1-yl)pyrimidine-2,4-diamine] | < 100 nM | < 100 nM |
| CN1CCC(Oc2ccc(Nc3nc(Nc4ccn5ccnc5c4)cc(N4CCOCC4)n3)cn2)CC1 [Example 89, N4-(imidazo[1,2-a]pyridin-7-yl)-N2-(6-((1-methylpiperidin-4-yl)oxy)pyridin-3-yl)-6-morpholinopyrimidine-2,4-diamine] | 100 to 1000 nM | < 100 nM |
| c1ccc(Oc2ccc(Nc3nc(Nc4ccn5ccnc5c4)cc(N4CCOCC4)n3)cn2)cc1 [Example 90, N4-(imidazo[1,2-a]pyridin-7-yl)-6-morpholino-N2-(6-phenoxypyridin-3-yl)pyrimidine-2,4-diamine] | 100 to 1000 nM | < 100 nM |
| c1ccc(COc2ccc(Nc3nc(Nc4ccn5ccnc5c4)cc(N4CCOCC4)n3)cn2)cc1 [Example 91, N2-(6-(benzyloxy)pyridin-3-yl)-N4-(imidazo[1,2-a]pyridin-7-yl)-6-morpholinopyrimidine-2,4-diamine] | 100 to 1000 nM | < 100 nM |
| CCc1ccnc(Nc2nc(Nc3ccn4ccnc4c3)cc(N3CCCCCC3)n2)c1 [Example 92, 6-(azepan-1-yl)-N2-(4-ethylpyridin-2-yl)-N4-(imidazo[1,2-a]pyridin-7-yl)pyrimidine-2,4-diamine] | < 100 nM | < 100 nM |
| CCc1cccc(Nc2nc(Nc3ccn4ccnc4c3)cc(N3CCCCC3)n2)n1 [Example 95, N2-(6-ethylpyridin-2-yl)-N4-(imidazo[1,2-a]pyridin-7-yl)-6-(piperidin-1-yl)pyrimidine-2,4-diamine] | < 100 nM | < 100 nM |
| c1cc(Nc2nc(Nc3ccn4ccnc4c3)cc(N3CCCCC3)n2)nc(C2CC2)c1 [Example 96, N2-(6-cyclopropylpyridin-2-yl)-N4-(imidazo[1,2-a]pyridin-7-yl)-6-(piperidin-1-yl)pyrimidine-2,4-diamine] | 100 to 1000 nM | 100 to 1000 nM |
| CCc1ccnc(Nc2nc(Nc3ccn4ccnc4c3)cc(N3CCN[C@@H](C)C3)n2)c1 [Example 97, (S)-N2-(4-ethylpyridin-2-yl)-N4-(imidazo[1,2-a]pyridin-7-yl)-6-(3-methylpiperazin-1-yl)pyrimidine-2,4-diamine] | 100 to 1000 nM | 100 to 1000 nM |
| CCc1ccnc(Nc2nc(Nc3ccn4ccnc4c3)cc(N3CCC(C)CC3)n2)c1 [Example 98, N2-(4-ethylpyridin-2-yl)-N4-(imidazo[1,2-a]pyridin-7-yl)-6-(4-methylpiperidin-1-yl)pyrimidine-2,4-diamine] | 100 to 1000 nM | 100 to 1000 nM |
| CCc1ccnc(Nc2nc(Nc3ccn4ccnc4c3)cc(N3CCC(C)(C)CC3)n2)c1 [Example 99, 6-(4,4-dimethylpiperidin-1-yl)-N2-(4-ethylpyridin-2-yl)-N4-(imidazo[1,2-a]pyridin-7-yl)pyrimidine-2,4-diamine] | 100 to 1000 nM | 100 to 1000 nM |

| Compound | IC50 [1] | IC50 [2] |
| --- | --- | --- |
| CCc1ccnc(Nc2nc(Nc3ccn4ccnc4c3)cc(N3CCN(C(=O)OC(C)(C)C)[C@H](C)C3)n2)c1 [Example 100, (R)-tert-butyl 4-(2-((4-ethylpyridin-2-yl)amino)-6-(imidazo[1,2-a]pyridin-7-ylamino)pyrimidin-4-yl)-2-methylpiperazine-1-carboxylate] | 100 to 1000 nM | 100 to 1000 nM |
| CCc1ccnc(Nc2nc(Nc3ccn4ccnc4c3)cc(N3CCN(C)[C@@H](C)C3)n2)c1 [Example 101, (S)-6-(3,4-dimethylpiperazin-1-yl)-N2-(4-ethylpyridin-2-yl)-N4-(imidazo[1,2-a]pyridin-7-yl)pyrimidine-2,4-diamine] | 1000 to 10000 nM | 100 to 1000 nM |
| CCc1ccnc(Nc2nc(Nc3ccn4ccnc4c3)cc(N3CCN[C@H](C)C3)n2)c1 [Example 102, (R)-N2-(4-ethylpyridin-2-yl)-N4-(imidazo[1,2-a]pyridin-7-yl)-6-(3-methylpiperazin-1-yl)pyrimidine-2,4-diamine] | 100 to 1000 nM | 100 to 1000 nM |
| CCc1ccnc(Nc2nc(Nc3ccn4ccnc4c3)cc(N3CCN(C(=O)OC(C)(C)C)[C@@H](C)C3)n2)c1 [Example 103, (S)-tert-butyl 4-(2-((4-ethylpyridin-2-yl)amino)-6-(imidazo[1,2-a]pyridin-7-ylamino)pyrimidin-4-yl)-2-methylpiperazine-1-carboxylate] | 100 to 1000 nM | 100 to 1000 nM |
| CCc1ccnc(Nc2nc(Nc3ccn4ccnc4c3)cc(N3CCN(C)[C@H](C)C3)n2)c1 [Example 104, (R)-6-(3,4-dimethylpiperazin-1-yl)-N2-(4-ethylpyridin-2yl)-N4-(imidazo[1,2-a]pyridin-7-yl)pyrimidine-2,4-diamine] | 1000 to 10000 nM | 100 to 1000 nM |
| CCc1cccc(Nc2nc(Nc3ccn4ccnc4c3)cc(N3CCOCC3)n2)n1 [Example 107, N2-(6-ethylpyridin-2-yl)-N4-(imidazo[1,2-a]pyridin-7-yl)-6-morpholinopyrimidine-2,4-diamine] | < 100 nM | < 100 nM |
| CCCc1cccc(Nc2nc(Nc3ccn4ccnc4c3)cc(N3CCOCC3)n2)n1 [Example 108, N4-(imidazo[1,2-a]pyridin-7-yl)-6-morpholino-N2-(6-propylpyridin-2-yl)pyrimidine-2,4-diamine] | 100 to 1000 nM | < 100 nM |
| CCCCc1cccc(Nc2nc(Nc3ccn4ccnc4c3)cc(N3CCOCC3)n2)n1 [Example 109, N2-(6-butylpyridin-2-yl)-N4-(imidazo[1,2-a]pyridin-7-yl)-6-morpholinopyrimidine-2,4-diamine] | < 100 nM | < 100 nM |
| c1cc(Nc2nc(Nc3ccn4ccnc4c3)cc(N3CCOCC3)n2)nc(C2CC2)c1 [Example 110, N2-(6-cyclopropylpyridin-2-yl)-N4-(imidazo[1,2-a]pyridin-7-yl)-6-morpholinopyrimidine-2,4-diamine] | 100 to 1000 nM | < 100 nM |
| CCc1ccnc(Nc2nc(Nc3ccn4ccnc4c3)cc(N3CCC(O)CC3)n2)c1 [Example 111, 1-(2-((4-ethylpyridin-2-yl)amino)-6-(imidazo[1,2-a]pyridin-7-ylamino)pyrimidin-4-yl)piperidin-4-ol] | < 100 nM | < 100 nM |
| CCc1ccnc(Nc2nc(Nc3ccn4ccnc4c3)cc(N3CCC(N4CCOCC4)CC3)n2)c1 [Example 112, N2-(4-ethylpyridin-2-yl)-N4-(imidazo[1,2-a]pyridin-7-yl)-6-(4-morpholinopiperidin-1-yl)pyrimidine-2,4-diamine] | < 100 nM | < 100 nM |
| CCc1ccnc(Nc2nc(Nc3ccn4ccnc4c3)cc(N3CCC(N4CCCCC4)CC3)n2)c1 [Example 113, 6-([1,4′-bipiperidin]-1′-yl)-N2-(4-ethylpyridin-2-yl)-N4-(imidazo[1,2-a]pyridin-7-yl)pyrimidine-2,4-diamine] | < 100 nM | < 100 nM |
| CCc1ccnc(Nc2nc(Nc3ccn4ccnc4c3)cc(N3CC(O)C3)n2)c1 [Example 115, 1-(2-((4-ethylpyridin-2-yl)amino)-6-(imidazo[1,2-a]pyridin-7-ylamino)pyrimidin-4-yl)azetidin-3-ol] | < 100 nM | < 100 nM |
| CCc1ccnc(Nc2nc(Nc3ccn4ccnc4c3)cc(N3CC[C@@H](O)C3)n2)c1 [Example 116, (R)-1-(2-((4-ethylpyridin-2-yl)amino)-6-(imidazo[1,2-a]pyridin-7-ylamino)pyrimidin-4-yl)pyrrolidin-3-ol] | < 100 nM | < 100 nM |
| CCc1ccnc(Nc2nc(Nc3ccn4ccnc4c3)cc(N3CC[C@H](O)C3)n2)c1 [Example 117, (S)-1-(2-((4-ethylpyridin-2-yl)amino)-6-(imidazo[1,2-a]pyridin-7-ylamino)pyrimidin-4-yl)pyrrolidin-3-ol] | < 100 nM | < 100 nM |

Source: US10538521B2, “Pyrimidine derivative having antimalarial activity” (CARNA BIOSCIENCES, INC., priority 2016, dated 2020)
